Assay results: the supplement of paper PMC7840683
± gives the standard deviation of the averaged measurements.

Test system: HepaRG
Assay: LDH release cytotoxicity, % of total lysis control; higher = more cytotoxic
Conditions: 48 h
How it was run: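 On collagen I-coated 96-well plates, single-lot HepaRG cells were exposed for 48 h, in duplicate, to eight-point half-log series of test chemicals beginning at 100 µM. The exposure medium was serum-free induction medium with 0.5% DMSO, and total lysis wells got 0.1% Triton X. Resorufin fluorescence from the CytoTox-ONE reaction, read on a Tecan Safire, reported LDH in 50 µL of spent medium. Percent cytotoxicity came from normalization to on-plate vehicle and total lysis controls, averaged over the duplicates.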

Row | Structure (SMILES) | LDH release cytotoxicity (0.03162 µM) [%] | LDH release cytotoxicity (0.1 µM) [%] | LDH release cytotoxicity (0.3162278 µM) [%] | LDH release cytotoxicity (1 µM) [%] | LDH release cytotoxicity (3.16228 µM) [%] | LDH release cytotoxicity (10 µM) [%] | LDH release cytotoxicity (31.6228 µM) [%] | LDH release cytotoxicity (100 µM) [%] | further results
1 | NS(=O)(=O)c1cc2c(cc1Cl)NCNS2(=O)=O [Hydrochlorothiazide] | -0.499 ± 1.2 | -1.26 ± 0.43 | -1.458 ± 0.011 | -1.51 ± 0.88 | -1.15 ± 0.3 | -0.679 ± 0.3 | -1.51 ± 0.25 | -0.146 ± 0.38 | –
2 | Oc1ccc(O)cc1 [Hydroquinone] | 0.852 ± 2.2 | -0.606 ± 1 | -1.09 ± 0.16 | -0.745 ± 0.076 | -0.483 ± 0.15 | -0.0561 ± 0.24 | -0.947 ± 0.53 | -1.615 ± 0.013 | –
3 | CC(C)(O)C(=O)Nc1ccc([N+](=O)[O-])c(C(F)(F)F)c1 [Hydroxyflutamide] | – | – | – | – | – | – | – | – | LDH release cytotoxicity (0.01581 µM): -1.79 ± 0.91%; LDH release cytotoxicity (0.05 µM): -0.825 ± 0.75%; LDH release cytotoxicity (0.1581139 µM): -0.846 ± 0.13%; LDH release cytotoxicity (0.5 µM): -1.16 ± 0.28%; LDH release cytotoxicity (1.5811388 µM): -0.0206 ± 0.13%; LDH release cytotoxicity (5 µM): 0.0482 ± 0.13%; LDH release cytotoxicity (15.8114 µM): -1.19 ± 0.34%; LDH release cytotoxicity (50 µM): 2.46 ± 1.6%
4 | NC(=O)NO [Hydroxyurea] | -2.94 ± 1.1 | -1.59 ± 1.4 | -2.4 ± 0.64 | -2.62 ± 0.18 | -1.83 ± 0.11 | -1.79 ± 0.38 | -0.278 ± 0.73 | 2.82 ± 1.5 | –
5 | CCC(C)OC(=O)N1CCCCC1CCO (configuration not stated) [Icaridin] | 6.64 ± 2.3 | 4.72 ± 0.94 | 4.33 ± 2.2 | 5.97 ± 4 | 5.34 ± 1.5 | 2.82 ± 1.4 | 8.294 ± 0.063 | 9.41 ± 0.56 | –
6 | CC(=O)SC(C(=O)NC1Cc2ccccc2C2CCCC(C(=O)O)N2C1=O)C(C)C (configuration not stated) [Ilepatril] | -3.01 ± 0.96 | -3.51 ± 0.86 | -2.73 ± 1.2 | -2.08 ± 0.5 | -2.73 ± 0.96 | -1.99 ± 0.38 | -1.05 ± 0.81 | -0.123 ± 0.4 | –
7 | C=CCOC(Cn1ccnc1)c1ccc(Cl)cc1Cl (configuration not stated) [Imazalil] | -1.02 ± 1.2 | -0.85 ± 0.77 | -0.00888 ± 0.2 | -0.601 ± 1.6 | -0.652 ± 0.76 | 0.29 ± 0.16 | 8.422 ± 0.022 | 69.6 ± 12 | –
8 | COCc1cnc(C2=NC(C)(C(C)C)C(=O)N2)c(C(=O)O)c1 (configuration not stated) [Imazamox] | -0.37 ± 0.36 | -1.71 ± 1.1 | -1.61 ± 0.19 | -1.73 ± 0.34 | -1.43 ± 0.53 | -1.49 ± 0.15 | -2 ± 0.16 | -0.764 ± 0.39 | –
9 | Cc1cnc(C2=NC(=O)C(C)(C(C)C)N2)c(C(=O)O)c1 (configuration not stated) [Imazapic] | -0.83 ± 0.63 | -2.27 ± 0.52 | -1.6 ± 0.34 | -1.46 ± 0.11 | -1.69 ± 0.21 | -0.919 ± 0.055 | -0.228 ± 0.13 | 0.017 ± 1.6 | –
10 | CC(C)C1(C)N=C(c2ncccc2C(=O)O)NC1=O (configuration not stated) [Imazapyr] | -1.83 ± 0.41 | -1.02 ± 0.061 | -1.62 ± 0.63 | -0.872 ± 0.078 | -0.897 ± 0.67 | -1.03 ± 0.39 | -0.823 ± 0.31 | 0.363 ± 0.9 | –
11 | CC(C)C1(C)N=C(c2nc3ccccc3cc2C(=O)O)NC1=O (configuration not stated) [Imazaquin] | -3.4 ± 0.27 | -3.18 ± 1.6 | -1.28 ± 0.9 | -2.88 ± 1.6 | -0.995 ± 1 | -0.807 ± 1.1 | -0.68 ± 1 | 2.17 ± 0.069 | –
12 | CCc1cnc(C2=NC(C)(C(C)C)C(=O)N2)c(C(=O)O)c1 (configuration not stated) [Imazethapyr] | -0.727 ± 0.19 | -1.781 ± 0.0048 | -1.13 ± 0.36 | -1.33 ± 0.57 | -1.54 ± 0.26 | -1.13 ± 0.26 | -0.237 ± 0.13 | 0.45 ± 0.53 | –
13 | O=[N+]([O-])/N=C1\NCCN1Cc1ccc(Cl)nc1 [Imidacloprid] | -2.56 ± 0.29 | -1.08 ± 1.5 | -1.14 ± 2.6 | -1.66 ± 2.5 | -1.89 ± 1.9 | -0.694 ± 1.4 | -0.538 ± 0.36 | 1.58 ± 0.76 | –
14 | [As]#[In] [Indium arsenide] | 0.449 ± 0.65 | -0.971 ± 1.1 | 0.268 ± 0.68 | -0.269 ± 0.016 | 0.376 ± 0.79 | 0.749 ± 0.43 | 0.141 ± 0.26 | 1.11 ± 0.32 | –
15 | COC(=O)N(C(=O)N1COC2(C(=O)OC)Cc3cc(Cl)ccc3C2=N1)c1ccc(OC(F)(F)F)cc1 (configuration not stated) [Indoxacarb] | – | – | – | – | – | – | – | – | LDH release cytotoxicity (0.0253 µM): -0.813 ± 0.062%; LDH release cytotoxicity (0.08 µM): 0.513 ± 0.93%; LDH release cytotoxicity (0.252982 µM): -1.47 ± 0.66%; LDH release cytotoxicity (0.8 µM): -0.957 ± 0.72%; LDH release cytotoxicity (2.52982 µM): -0.16 ± 1.7%; LDH release cytotoxicity (8 µM): -0.511 ± 0.2%; LDH release cytotoxicity (25.2982 µM): 0.453 ± 1.4%; LDH release cytotoxicity (80 µM): 14.2 ± 2.2%
16 | O=C(NC(Cc1ccccc1)C(O)C(=O)N1CC(O)C(O)C1)c1cc2cc(Cl)ccc2[nH]1 (configuration not stated) [Ingliforib] | -1.12 ± 1.5 | -2 ± 0.27 | -1.41 ± 1.2 | -0.89 ± 0.66 | -0.718 ± 0.6 | -0.896 ± 0.48 | -1.06 ± 0.19 | 8.47 ± 1.3 | –
17 | COC(=O)c1ccc(I)cc1S(=O)(=O)NC(=O)Nc1nc(C)nc(OC)n1 [Iodosulfuron-methyl-sodium] | -1.49 ± 0.12 | -0.389 ± 1.6 | -1.21 ± 0.34 | -0.477 ± 0.51 | -0.16 ± 0.13 | 0.897 ± 0.24 | 0.0334 ± 0.38 | 2.49 ± 0.31 | –
18 | CC(C)NC(=O)N1CC(=O)N(c2cc(Cl)cc(Cl)c2)C1=O [Iprodione] | -0.45 ± 0.15 | -1.34 ± 0.23 | -0.949 ± 0.21 | -1.27 ± 0.32 | -1.29 ± 0.11 | -0.662 ± 0.57 | 1.78 ± 0.13 | 4.73 ± 0.47 | –
19 | CCOP(=S)(OCC)Oc1nc(Cl)n(C(C)C)n1 [Isazofos] | – | -1.65 ± 0.25 | – | -2.59 ± 0.06 | -3.48 ± 0.65 | -3 ± 0.69 | -3.67 ± 1.1 | 1.66 ± 0.81 | LDH release cytotoxicity (0.031623 µM): 0.0296 ± 0.94%; LDH release cytotoxicity (0.316228 µM): -2.1 ± 1%
